According to article PMC8776995 (Frontiers in Chemistry, 2022):
Where “and” joins values, the source holds several entries; their conditions need not be identical. Equal values may be shown once.

Assays:
[1] = tested on: PC-9 cells; experiment: CCK-8 antiproliferation assay, PC-9; settings: Homo sapiens, PC-9, 48 h, read-out: IC50 (μM) PC-9
[2] = tested on: EGFR phosphorylation (Tyr1068) in H460 cells; experiment: Western blot, p-EGFR/EGFR in H460; settings: H460, 10 uM
Procedure: (§1) We also performed western blot analysis to evaluate the impact of e4 and e12 on EGFR signaling in PC-9 and H460 cells.
(§2) H460 cells were seeded in six-well plates with serum-free medium overnight, and then treated complete medium containing 0.1% DMSO, various concentrations (0.1, 1 and 10 μM) of either compound e4 or e12 for 2 h, respectively. […] Then the H460 cells were treated with complete medium containing EGF (10 ng/ml) for 5 min. Then the cells were harvested and washed with PBS, centrifuged, resuspended in 100–200 μl of RIPA lysis buffer containing Protease and Phosphatase Inhibitor Cocktail (1X), and then centrifuged for 5 min at 12,000 rpm at 4°C. The supernatant was used for protein analysis. […] Then the membrane was washed 5 min (X3) and incubated at 1:3,000 dilution of anti-rabbit secondary antibodies or 1:1,000 dilution of anti-mouse secondary antibodies for 1 h at RT. After washing with TBST 5 min (X3), protein bands were developed by chemiluminescence. The protein levels were quantified by the gray values of the bands in the resulting images by ImageJ, and the control group was used as the standard. […] The PC-9 cells were harvested and analyzed as above.

[3] = tested on: H1975 cells; experiment: CCK-8 antiproliferation assay, H1975
[4] = tested on: EGFR phosphorylation (Tyr1068) in PC-9 cells; experiment: Western blot, p-EGFR/EGFR in PC-9; settings: PC-9, 10 uM
Procedure: as §1, §2

[5] = tested on: H460 cells; experiment: CCK-8 antiproliferation assay, H460
[6] = tested on: AKT phosphorylation (S473) in H460 cells; experiment: Western blot, p-AKT/AKT in H460; settings: H460, 10 uM
Procedure: as §1, §2

[7] = target: wild-type EGFR (Homo sapiens, UniProt P00533); experiment: EGFR kinase assay (ELISA); settings: for A450: raw ELISA absorbance
Sequence of wild-type EGFR (P00533 25-1210): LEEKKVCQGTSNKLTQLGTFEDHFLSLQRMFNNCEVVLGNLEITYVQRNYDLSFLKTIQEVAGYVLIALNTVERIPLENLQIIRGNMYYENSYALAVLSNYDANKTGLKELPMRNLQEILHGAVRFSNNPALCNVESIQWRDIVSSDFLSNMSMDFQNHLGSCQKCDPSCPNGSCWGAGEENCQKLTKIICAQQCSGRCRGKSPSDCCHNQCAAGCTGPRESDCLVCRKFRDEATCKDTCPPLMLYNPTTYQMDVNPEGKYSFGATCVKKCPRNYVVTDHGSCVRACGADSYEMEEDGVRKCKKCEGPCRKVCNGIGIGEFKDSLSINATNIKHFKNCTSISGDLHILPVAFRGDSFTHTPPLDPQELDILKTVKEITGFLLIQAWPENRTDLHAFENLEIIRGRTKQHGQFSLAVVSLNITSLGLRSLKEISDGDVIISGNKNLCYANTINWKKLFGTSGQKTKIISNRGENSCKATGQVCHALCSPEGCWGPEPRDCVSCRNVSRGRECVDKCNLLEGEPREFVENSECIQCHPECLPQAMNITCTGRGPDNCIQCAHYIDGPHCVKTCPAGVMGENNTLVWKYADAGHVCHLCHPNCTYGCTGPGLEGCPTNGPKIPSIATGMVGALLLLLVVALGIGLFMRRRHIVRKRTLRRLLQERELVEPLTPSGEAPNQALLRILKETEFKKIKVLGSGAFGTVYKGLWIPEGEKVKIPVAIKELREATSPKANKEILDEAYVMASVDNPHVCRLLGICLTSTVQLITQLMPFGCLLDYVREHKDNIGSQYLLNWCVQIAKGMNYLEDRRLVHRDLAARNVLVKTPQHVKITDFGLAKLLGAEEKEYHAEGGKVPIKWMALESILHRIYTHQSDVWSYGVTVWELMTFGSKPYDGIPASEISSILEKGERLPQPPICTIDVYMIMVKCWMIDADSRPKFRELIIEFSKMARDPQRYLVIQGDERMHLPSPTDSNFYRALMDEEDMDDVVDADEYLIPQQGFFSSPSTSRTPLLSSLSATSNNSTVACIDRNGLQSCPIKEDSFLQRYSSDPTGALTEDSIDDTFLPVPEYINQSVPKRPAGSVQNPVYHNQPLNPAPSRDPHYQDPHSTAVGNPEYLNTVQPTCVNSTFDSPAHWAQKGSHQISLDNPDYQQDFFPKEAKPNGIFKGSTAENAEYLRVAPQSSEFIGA

[8] = tested on: PC-9 xenograft; experiment: In vivo antitumor activity, PC-9 xenograft in NSG mice; parameters: species or system mouse; settings: Day19, individual animals
Procedure: The mouse body mass was recorded as well.

[9] = tested on: AKT phosphorylation (S473) in PC-9 cells; experiment: Western blot, p-AKT/AKT in PC-9; settings: PC-9, 10 uM
Procedure: as §1, §2

[10] = tested on: A549 cells; experiment: CCK-8 antiproliferation assay, A549; settings: for Inhibitory efficacy: A549 cells

With `COCCOc1cc2ncnc(Nc3cccc(-c4cn(-c5ccccc5)nn4)c3)c2cc1OCCOC` [e15, [6,7-Bis-(2-methoxy-ethoxy)-quinazolin-4-yl]-[3-(1-phenyl-1H-[1,2,3]triazol-4-yl)-phenyl]-amine] the IC50 [1] was greater than 100 µM, the p-EGFR/EGFR ([2]; band density ratio) was 0.02304 and the “p-EGFR/EGFR relative to DMSO” value ([2]; ratio normalised to DMSO) was 0.02768. The Inhibitory efficacy ([3]; H1975 cells, 8uM, given as fraction, Repeat 1-3) was 0.07522 and 0.1057, the IC50 ([3]; Homo sapiens, NCI-H1975, 48 h, read-out: IC50 (μM) H1975, CCK-8, 48 h, average ± SD of three independent experiments) was greater than 100 µM and the inhibition at 8 µM ([3]; Homo sapiens, NCI-H1975, read-out: Inhibitory efficacy, H1975 cells, 8uM, given as fraction, Repeat 1-3) was 6.27%. For the same compound, the p-EGFR/EGFR ([4]; band density ratio) was 0.2353, the “p-EGFR/EGFR relative to DMSO” value ([4]; ratio normalised to DMSO = 1) was 0.2103 and the Inhibitory efficacy ([5]; H460 cells, 2uM, given as fraction, Repeat 1-3) was 0.04615 and 0.05031. The IC50 ([5]; Homo sapiens, NCI-H460, 48 h, read-out: IC50 (μM) H460, CCK-8, 48 h, average ± SD of three independent experiments) was greater than 100 µM, the inhibition at 2 µM ([5]; Homo sapiens, NCI-H460, read-out: Inhibitory efficacy, H460 cells, 2uM, given as fraction, Repeat 1-3) was 5.86% and the p-AKT/AKT ([6]; band density ratio) was 0.08408. The “p-AKT/AKT relative to DMSO” value ([6]; ratio normalised to DMSO) was 0.08452, the IC50 ([7]; IC50 (μM) EGFR, ELISA, 3 μmol/L ATP) was 0.09 µM and the inhibition at 100 fM ([7]; concentration 0.0001 nM (reference for normalisation), one value per replicate column) was 0%. For the same compound, the Inhibition ([7]; concentration 0.03 nM, one value per replicate column, 3e-05 µM) was 3.563 and 0.1327, the Inhibition ([7]; concentration 0.3 nM, one value per replicate column, 0.0003 µM) was 14.0143 and 0.8626 and the inhibition at 0.003 µM ([7]; concentration 3 nM, one value per replicate column) was 33.2%. For the same compound, the Inhibition ([7]; concentration 3 nM, one value per replicate column, 0.003 µM) was 30.0597, the inhibition at 0.03 µM ([7]; concentration 30 nM, one value per replicate column) was 44.4% and the Inhibition ([7]; concentration 30 nM, one value per replicate column, 0.03 µM) was 47.6443. For the same compound, the inhibition at 0.3 µM ([7]; concentration 300 nM, one value per replicate column) was 59.3%, the Inhibition ([7]; concentration 300 nM, one value per replicate column, 0.3 µM) was 58.7259 and the inhibition at 3 µM ([7]; concentration 3000 nM, one value per replicate column) was 68.1%. The Inhibition ([7]; concentration 3000 nM, one value per replicate column, 3 µM) was 67.4851, the inhibition at 30 µM ([7]; concentration 30000 nM, one value per replicate column) was 86.9% and the Inhibition ([7]; concentration 30000 nM, one value per replicate column, 30 µM) was 93.1652. For the same compound, the A450 ([7]; concentration 0.0001 nM) was 1.566 and 1.805, the A450 ([7]; concentration 0.03 nM) was 1.521 and 1.803 and the A450 ([7]; concentration 0.3 nM) was 1.389 and 1.792. For the same compound, the A450 ([7]; concentration 3 nM) was 1.147 and 1.352, the A450 ([7]; concentration 30 nM) was 1.005 and 1.087 and the A450 ([7]; concentration 300 nM) was 0.817 and 0.92. For the same compound, the A450 ([7]; concentration 3000 nM) was 0.706 and 0.788, the A450 ([7]; concentration 30000 nM) was 0.469 and 0.401 and the Tumor weight [8] was 0.04 g and 0.03 g and 0.02 g and 0.01 g. For the same compound, the p-AKT/AKT ([9]; band density ratio) was 0.03365, the “p-AKT/AKT relative to DMSO” value ([9]; ratio normalised to DMSO = 1) was 0.03231 and the Inhibitory efficacy ([10]; 1uM, given as fraction, Repeat 1-3) was 0.1367 and 0.1269. The Inhibitory efficacy ([10]; 2uM, given as fraction, Repeat 1-3) was 0.193 and 0.2629, the Inhibitory efficacy ([10]; 4uM, given as fraction, Repeat 1-3) was 0.2103 and 0.2621 and the Inhibitory efficacy ([10]; 8uM, given as fraction, Repeat 1-3) was 0.2141 and 0.1622. For the same compound, the Inhibitory efficacy ([10]; 16uM, given as fraction, Repeat 1-3) was 0.2043 and 0.1059, the IC50 ([10]; Homo sapiens, A549, 48 h, read-out: IC50 (μM) A549, CCK-8, 48 h, average ± SD of three independent experiments) was greater than 100 µM and the inhibition at 1 µM ([10]; Homo sapiens, A549, read-out: Inhibitory efficacy, A549 cells, 1uM, given as fraction, Repeat 1-3) was 11.7%. The inhibition at 2 µM ([10]; Homo sapiens, A549, read-out: Inhibitory efficacy, A549 cells, 2uM, given as fraction, Repeat 1-3) was 15.2%, the inhibition at 4 µM ([10]; Homo sapiens, A549, read-out: Inhibitory efficacy, A549 cells, 4uM, given as fraction, Repeat 1-3) was 18.5% and the inhibition at 8 µM ([10]; Homo sapiens, A549, read-out: Inhibitory efficacy, A549 cells, 8uM, given as fraction, Repeat 1-3) was 14.6%. It also gave an inhibition at 16 µM ([10]; Homo sapiens, A549, read-out: Inhibitory efficacy, A549 cells, 16uM, given as fraction, Repeat 1-3) of 11.9%.
